Earlier results as cited in US20260284079A1, “LIPID PRODRUGS OF ALLOPR[…] USES THEREOF” (Seaport Therapeutics, Inc., priority 2023, published 2026).

Columns and labels:
salivary cortisol levels = conditions: literature; cited from earlier work
[1] = due to extensive first-pass metabolism; cited from earlier work

Compound	blunting of increase in salivary cortisol levels following a TSST (salivary cortisol levels)	oral bioavailability [1]
CCNC1=Nc2ccc(Cl)cc2C(C)(c2ccccc2)O1 (centres unmarked) [Etifoxine]	does not blunt an increase in salivary cortisol levels	
CC(=O)[C@H]1CC[C@H]2[C@@H]3CC[C@H]4C[C@H](O)CC[C@]4(C)[C@H]3CC[C@]12C [allopregnanolone]		less than 5%
